Patent publication US20060069132A1, “Azolecarboxamide herbicides” (priority 2004, published 2006)

Tests used:
Experiment in all cases: Test E pre-/postemergence herbicide test
southern sandbur = format: in vivo, Cenchrus echinatus
Source text: (§1) Seeds of plant species selected from bipinnate beggarticks (Bidens bipinnata L.), hairy beggarticks (Bidens radiata Thuill.), bermudagrass (Cynodon dactylon (L.) Pers.), Surinam grass (Urochloa decumbens (Staph) R. D. Webster, previously named Brachiaria decumbens Stapf), large crabgrass (Digitaria sanguinalis (L.) Scop.), green foxtail (Setaria viridis (L.) P. Beauv.), goosegrass (Eleusine indica (L.) Gaertn.), johnsongrass (Sorghum halepense (L.) Pers.), kochia (Kochia scoparia (L.) Schrad.), pitted morningglory (Ipomoea lacunosa L.), purple nutsedge (Cyperus rotundus L.), common ragweed (Ambrosia elatior L.), mustard (Brassica nigra (L.) W. D. J. Koch), guineagrass (Panicum maximum Jacq.), dallisgrass (Paspalum dilatatum Poir.), barnyardgrass (Echinochloa crus-galli (L). P. Beauv.), southern sandbur (Cenchrus echinatus L.), common sowthistle (Sonchus oleraceous L.), prickly sida (Sida spinosa L.), Italian ryegrass (Lolium multiflorum Lam.), common purslane (Portulaca oleracea L.), broadleaf signalgrass (Brachiaria platyphylla (Griseb.) Nash), common groundsel (Senecio vulgaris L.), common chickweed (Stellaria media (L.) Vill/Cyr.), tropical spiderwort (Commelina benghalensis L.), annual bluegrass (Poa annua L.), downy bromegrass (Bromus tectorum L.), itchgrass (Rottboellia cochinchinensis (L.) L.f.), quackgrass (Elytrigia repens (L.) Nevski), Canada horseweed (Erigeron Canadensis L.), field bindweed (Convolvulus arvensis L.), spotted spurge (Euphorbia maculata L.), common mallow (Malva sylvestris (=s silvestris) L.), and Russian thistle (Salsola kali L. ssp. Ruthenica (Iljin) Soo) were planted and treated preemergence with test chemicals formulated in a non-phytotoxic solvent mixture which included a surfactant.
(§2) At the same time, plants selected from these weed species were treated with postemergence applications of some of the test chemicals formulated in the same manner. Plants ranged in height from 2 to 18 cm (1- to 4-leaf stage) for postemergence treatments. Treated plants and controls were maintained in a greenhouse for 12 to 14 days, after which time all species were compared to controls and visually evaluated. Plant response ratings, summarized in Table E, are based on a scale of 0 to 100 where 0 is no effect and 100 is complete control. A dash (-) response means no test result.

large crabgrass = format: in vivo, Digitaria sanguinalis
Source text: as §1, §2

tropical spiderwort = format: in vivo, Commelina benghalensis
Source text: as §1, §2

quackgrass = format: in vivo, Elytrigia repens
Source text: as §1, §2

guineagrass = format: in vivo, Panicum maximum
Source text: as §1, §2

field bindweed = format: in vivo, Convolvulus arvensis
Source text: as §1, §2

dallisgrass = format: in vivo, Paspalum dilatatum
Source text: as §1, §2

johnsongrass = format: in vivo, Sorghum halepense
Source text: as §1, §2

Italian ryegrass = format: in vivo, Lolium multiflorum
Source text: as §1, §2

bermudagrass = format: in vivo, Cynodon dactylon
Source text: as §1, §2

mustard = format: in vivo, Brassica nigra
Source text: as §1, §2

common chickweed = format: in vivo, Stellaria media
Source text: as §1, §2

common groundsel = format: in vivo, Senecio vulgaris
Source text: as §1, §2

purple nutsedge = format: in vivo, Cyperus rotundus
Source text: as §1, §2

common purslane = format: in vivo, Portulaca oleracea; settings: Preemergence
Source text: as §1, §2

[1] = Postemergence, 500 g ai/ha, scale 0 to 100
[2] = Postemergence, 250 g ai/ha, scale 0 to 100
[3] = Preemergence, 62 g ai/ha, scale 0 to 100
[4] = Preemergence, 125 g ai/ha, scale 0 to 100
[5] = Preemergence, 250 g ai/ha, scale 0 (no effect) to 100 (complete control)
[6] = Preemergence, 500 g ai/ha, scale 0 (no effect) to 100 (complete control)
[7] = postemergence, 125 g ai/ha, scale 0 to 100

SMILES: CCNC(=O)c1ccnc(NC(=O)c2cc(C(C)(C)C)nn2CC)c1 [Compound 152]
- Plant response rating, Sandbur (southern sandbur; [1]): 100
- Plant response rating, Sandbur (southern sandbur; [2]): 40
- Plant response rating, Sandbur (southern sandbur; [3]): 10
- Plant response rating, Sandbur (southern sandbur; [4]): 30
- Plant response rating, Sandbur (southern sandbur; [5]): 70
- Plant response rating, Sandbur (southern sandbur; [6]): 80
- Plant response rating, Sandbur (southern sandbur; [7]): 20
- Plant response rating, Crabgrass, Large (large crabgrass; [1]): 80
- Plant response rating, Crabgrass, Large (large crabgrass; [2]): 75
- Plant response rating, Crabgrass, Large (large crabgrass; [3]): 40
- Plant response rating, Crabgrass, Large (large crabgrass; [4]): 70
- Plant response rating, Crabgrass, Large (large crabgrass; [5]): 100
- Plant response rating, Crabgrass, Large (large crabgrass; [6]): 100
- Plant response rating, Crabgrass, Large (large crabgrass; [7]): 60
- Plant response rating, Spiderwort (tropical spiderwort; [1]): 80
- Plant response rating, Spiderwort (tropical spiderwort; [2]): 10
- Plant response rating, Spiderwort (tropical spiderwort; [3]): 10
- Plant response rating, Spiderwort (tropical spiderwort; [4]): 20
- Plant response rating, Spiderwort (tropical spiderwort; [5]): 75
- Plant response rating, Spiderwort (tropical spiderwort; [6]): 80
- Plant response rating, Quackgrass (quackgrass; [1]): 80
- Plant response rating, Quackgrass (quackgrass; [2]): 80
- Plant response rating, Quackgrass (quackgrass; [3]): 10
- Plant response rating, Quackgrass (quackgrass; [4]): 20
- Plant response rating, Quackgrass (quackgrass; [5]): 50
- Plant response rating, Quackgrass (quackgrass; [6]): 60
- Plant response rating, Quackgrass (quackgrass; [7]): 70
- Plant response rating, Guineagrass (guineagrass; [1]): 80
- Plant response rating, Guineagrass (guineagrass; [2]): 70
- Plant response rating, Guineagrass (guineagrass; [3]): 20
- Plant response rating, Guineagrass (guineagrass; [4]): 50
- Plant response rating, Guineagrass (guineagrass; [5]): 80
- Plant response rating, Guineagrass (guineagrass; [6]): 100
- Plant response rating, Bindweed, Field (field bindweed; [1]): 50
- Plant response rating, Bindweed, Field (field bindweed; [2]): 30
- Plant response rating, Bindweed, Field (field bindweed; [3]): 10
- Plant response rating, Bindweed, Field (field bindweed; [4]): 20
- Plant response rating, Bindweed, Field (field bindweed; [5]): 60
- Plant response rating, Bindweed, Field (field bindweed; [6]): 90
- Plant response rating, Bindweed, Field (field bindweed; [7]): 30
- Plant response rating, Dallisgrass (dallisgrass; [1]): 75
- Plant response rating, Dallisgrass (dallisgrass; [2]): 75
- Plant response rating, Dallisgrass (dallisgrass; [3]): 50
- Plant response rating, Dallisgrass (dallisgrass; [4]): 80
- Plant response rating, Dallisgrass (dallisgrass; [5]): 85
- Plant response rating, Dallisgrass (dallisgrass; [6]): 95
- Plant response rating, Dallisgrass (dallisgrass; [7]): 30
- Plant response rating, Johnsongrass (johnsongrass; [1]): 95
- Plant response rating, Johnsongrass (johnsongrass; [2]): 80
- Plant response rating, Johnsongrass (johnsongrass; [3]): 30
- Plant response rating, Johnsongrass (johnsongrass; [4]): 50
- Plant response rating, Johnsongrass (johnsongrass; [5]): 80
- Plant response rating, Johnsongrass (johnsongrass; [6]): 85
- Plant response rating, Johnsongrass (johnsongrass; [7]): 70
- Plant response rating, Ryegrass, Italian (Italian ryegrass; [1]): 90
- Plant response rating, Ryegrass, Italian (Italian ryegrass; [2]): 90
- Plant response rating, Ryegrass, Italian (Italian ryegrass; [3]): 20
- Plant response rating, Ryegrass, Italian (Italian ryegrass; [4]): 50
- Plant response rating, Ryegrass, Italian (Italian ryegrass; [5]): 80
- Plant response rating, Ryegrass, Italian (Italian ryegrass; [6]): 95
- Plant response rating, Ryegrass, Italian (Italian ryegrass; [7]): 90
- Plant response rating, Bermudagrass (bermudagrass; [1]): 75
- Plant response rating, Bermudagrass (bermudagrass; [2]): 75
- Plant response rating, Bermudagrass (bermudagrass; [3]): 70
- Plant response rating, Bermudagrass (bermudagrass; [4]): 90
- Plant response rating, Bermudagrass (bermudagrass; [5]): 95
- Plant response rating, Bermudagrass (bermudagrass; [6]): 95
- Plant response rating, Bermudagrass (bermudagrass; [7]): 40
- Plant response rating, Black Mustard (mustard; [1]): 100
- Plant response rating, Black Mustard (mustard; [2]): 100
- Plant response rating, Black Mustard (mustard; [3]): 90
- Plant response rating, Black Mustard (mustard; [4]): 90
- Plant response rating, Black Mustard (mustard; [5]): 95
- Plant response rating, Black Mustard (mustard; [6]): 100
- Plant response rating, Chickweed (common chickweed; [1]): 100
- Plant response rating, Chickweed (common chickweed; [3]): 90
- Plant response rating, Chickweed (common chickweed; [4]): 95
- Plant response rating, Chickweed (common chickweed; [5]): 100
- Plant response rating, Chickweed (common chickweed; [6]): 100
- Plant response rating, Groundsel (common groundsel; [1]): 95
- Plant response rating, Groundsel (common groundsel; [2]): 95
- Plant response rating, Groundsel (common groundsel; [3]): 95
- Plant response rating, Groundsel (common groundsel; [4]): 100
- Plant response rating, Groundsel (common groundsel; [5]): 100
- Plant response rating, Groundsel (common groundsel; [6]): 100
- Plant response rating, Groundsel (common groundsel; [7]): 90
- Plant response rating, Nutsedge, Purple (purple nutsedge; [1]): 75
- Plant response rating, Nutsedge, Purple (purple nutsedge; [2]): 60
- Plant response rating, Nutsedge, Purple (purple nutsedge; [3]): 0
- Plant response rating, Nutsedge, Purple (purple nutsedge; [4]): 20
- Plant response rating, Nutsedge, Purple (purple nutsedge; [5]): 50
- Plant response rating, Nutsedge, Purple (purple nutsedge; [6]): 60
- Plant response rating, Nutsedge, Purple (purple nutsedge; [7]): 30
- Plant response rating, Purslane (common purslane; 62 g ai/ha, scale 0 to 100): 0
- Plant response rating, Purslane (common purslane; 125 g ai/ha, scale 0 to 100): 0
- Plant response rating, Purslane (common purslane; 250 g ai/ha, scale 0 (no effect) to 100 (complete control)): 50
- Plant response rating, Purslane (common purslane; 500 g ai/ha, scale 0 (no effect) to 100 (complete control)): 100
